Measured values from patent US9890155B2, “Aza-oxo-indoles for the treatment and prophylaxis of respiratory syncytial virus infection” (Hoffmann-La Roche Inc., priority 2013, dated 2018).

Test system: RSV Long strain
Assay: Viral Cytopathic Effect (CPE) Assay
Assay type: cell-based
Details: human respiratory syncytial virus, 144 h, cell viability after 6 days (Cell Counting kit-8)
Protocol: EC50: the concentration of a compound where 50% of its maximal protection effect against viral induced CPE is observed
LongStrain: an A subtype RSV strain obtained from ATCC with catalog number VR-26
To measure anti-RSV activity of compounds, 96-well plates are seeded with 6×10^3 cells per well in Dulbecco's modified Eagle's medium (DMEM) containing 10% fetal bovine serum (FBS). Cells are infected the next day with sufficient RSV Long strain (ATCC) to produce an approximately 80-90% cytopathic effect after 6 days, in the presence of serial half-log diluted compound in a total volume of 200 μL per well. The viability of cells is assessed after 6 days using Cell Counting kit-8 (Dojindo Molecular Technologies). The absorbance at 450 nm and referenced at 630 nm is measured to determine 50% effective concentration (EC50).

EC50 | Compound
0.0007 µM | N#Cc1ccc(-n2c(CN3C(=O)C4(CC4)c4ccncc43)nc3cc(Cl)ccc32)cn1 [Example 1, 5-{5-Chloro-2-[(2′-oxospiro[cyclopropane-1,3′-pyrrolo[2,3-c]pyridin]-1′(2′H)-yl)methyl]-1H-benzimidazol-1-yl}pyridine-2-carbonitrile]
0.065 µM | CS(=O)(=O)c1cc(-n2c(CN3C(=O)C4(CC4)c4ccncc43)nc3cc(Cl)ccc32)ccn1 [Example 2-1, 1′-({5-Chloro-1-[2-(methylsulfonyl)pyridin-4-yl]-1H-benzimidazol-2-yl}methyl)spiro[cyclopropane-1,3′-pyrrolo[2,3-c]pyridin]-2′(1′H)-one]
0.021 µM | CCS(=O)(=O)c1ccnc(-n2c(CN3C(=O)C4(CC4)c4ccncc43)nc3cc(Cl)ccc32)c1 [Example 2-2, 1′-({5-Chloro-1-[4-(ethylsulfonyl)pyridin-2-yl]-1H-benzimidazol-2-yl}methyl)spiro[cyclopropane-1,3′-pyrrolo[2,3-c]pyridin]-2′(1′H)-one]
0.014 µM | CCOC(=O)Cc1ccc(-n2c(CN3C(=O)C4(CC4)c4ccncc43)nc3cc(Cl)ccc32)cc1 [Example 3, Ethyl(4-{5-chloro-2-[(2′-oxospiro[cyclopropane-1,3′-pyrrolo[2,3-c]pyridin]-1′(2′H)-yl)methyl]-1H-benzimidazol-1-yl}phenyl)acetate]
0.017 µM | O=C1N(Cc2nc3cc(Cl)ccc3n2-c2ccccc2)c2cnccc2C12CC2 [Example 4-1, 1′-[(5-Chloro-1-phenyl-1H-benzimidazol-2-yl)methyl]spiro[cyclopropane-1,3′-pyrrolo[2,3-c]pyridin]-2′(1′H)-one]
0.006 µM | CCOC(=O)c1ccc(-n2c(CN3C(=O)C4(CC4)c4ccncc43)nc3cc(Cl)ccc32)cc1 [Example 4-2, Ethyl 4-{5-chloro-2-[(2′-oxospiro[cyclopropane-1,3′-pyrrolo[2,3-c]pyridin]-1′(2′H)-yl)methyl]-1H-benzimidazol-1-yl}benzoate]
0.004 µM | CS(=O)(=O)c1ccc(-n2c(CN3C(=O)C4(CC4)c4ccncc43)nc3cc(Cl)ccc32)cn1 [Example 4-3, 1′-({5-Chloro-1-[6-(methylsulfonyl)pyridin-3-yl]-1H-benzimidazol-2-yl}methyl)spiro[cyclopropane-1,3′-pyrrolo[2,3-c]pyridin]-2′(1′H)-one]
0.008 µM | CS(=O)(=O)c1cccc(-n2c(CN3C(=O)C4(CC4)c4ccncc43)nc3cc(Cl)ccc32)c1 [Example 4-4, 1′-({5-chloro-1-[3-(methylsulfonyl)phenyl]-1H-benzimidazol-2-yl}methyl)spiro[cyclopropane-1,3′-pyrrolo[2,3-c]pyridin]-2′(1′H)-one]
0.005 µM | CS(=O)(=O)c1ccc(-n2c(CN3C(=O)C4(CC4)c4ccncc43)nc3cc(Cl)ccc32)cc1 [Example 4-5, 1′-({5-Chloro-1-[4-(methylsulfonyl)phenyl]-1H-benzimidazol-2-yl}methyl)spiro[cyclopropane-1,3′-pyrrolo[2,3-c]pyridin]-2′(1′H)-one]
0.016 µM | COC(=O)c1cccc(-n2c(CN3C(=O)C4(CC4)c4ccncc43)nc3cc(Cl)ccc32)c1 [Example 4-6, Methyl 3-{5-chloro-2-[(2′-oxospiro[cyclopropane-1,3′-pyrrolo[2,3-c]pyridin]-1′(2′H)-yl)methyl]-1H-benzimidazol-1-yl}benzoate]
0.007 µM | N#Cc1cccc(-n2c(CN3C(=O)C4(CC4)c4ccncc43)nc3cc(Cl)ccc32)c1 [Example 4-7, 3-{5-Chloro-2-[(2′-oxospiro[cyclopropane-1,3′-pyrrolo[2,3-c]pyridin]-1′(2′H)-yl)methyl]-1H-benzimidazol-1-yl}benzonitrile]
0.019 µM | CC(=O)c1cccc(-n2c(CN3C(=O)C4(CC4)c4ccncc43)nc3cc(Cl)ccc32)c1 [Example 4-8, 1′-{[1-(3-Acetylphenyl)-5-chloro-1H-benzimidazol-2-yl]methyl}spiro[cyclopropane-1,3′-pyrrolo[2,3-c]pyridin]-2′(1′H)-one]
0.011 µM | COc1ccc(-n2c(CN3C(=O)C4(CC4)c4ccncc43)nc3cc(Cl)ccc32)cn1 [Example 4-9, 1′-{[5-Chloro-1-(6-methoxypyridin-3-yl)-1H-benzimidazol-2-yl]methyl}spiro[cyclopropane-1,3′-pyrrolo[2,3-c]pyridin]-2′(1′H)-one]
0.005 µM | CS(=O)(=O)c1cncc(-n2c(CN3C(=O)C4(CC4)c4ccncc43)nc3cc(Cl)ccc32)c1 [Example 5-1, 1′-({5-Chloro-1-[5-(methylsulfonyl)pyridin-3-yl]-1H-benzimidazol-2-yl}methyl)spiro[cyclopropane-1,3′-pyrrolo[2,3-c]pyridin]-2′(1H)-one]
0.005 µM | CS(=O)(=O)c1cccc(-n2c(CN3C(=O)C4(CC4)c4ccncc43)nc3cc(Cl)ccc32)n1 [Example 5-2, 1′-({5-Chloro-1-[6-(methylsulfonyl)pyridin-2-yl]-1H-benzimidazol-2-yl}methyl)spiro[cyclopropane-1,3′-pyrrolo[2,3-c]pyridin]-2′(1′H)-one]
0.019 µM | Cc1cc(-n2c(CN3C(=O)C4(CC4)c4ccncc43)nc3cc(Cl)ccc32)cc(S(C)(=O)=O)c1 [Example 5-3, 1′-({5-Chloro-1-[3-methyl-5-(methylsulfonyl)phenyl]-1H-benzimidazol-2-yl}methyl)spiro[cyclopropane-1,3′-pyrrolo[2,3-c]pyridin]-2′(1′H)-one]
0.006 µM | O=C(O)c1ccc(-n2c(CN3C(=O)C4(CC4)c4ccncc43)nc3cc(Cl)ccc32)cc1 [Example 6-1, 4-{5-Chloro-2-[(2′-oxospiro[cyclopropane-1,3′-pyrrolo[2,3-c]pyridin]-1′(2′H)-yl)methyl]-1H-benzimidazol-1-yl}benzoic acid]
0.512 µM | O=C(O)c1cccc(-n2c(CN3C(=O)C4(CC4)c4ccncc43)nc3cc(Cl)ccc32)c1 [Example 6-2, 3-{5-Chloro-2-[(2′-oxospiro[cyclopropane-1,3′-pyrrolo[2,3-c]pyridin]-1′(2′H)-yl)methyl]-1H-benzimidazol-1-yl}benzoic acid]
0.05 µM | O=C(O)c1ccc(-n2c(CN3C(=O)C4(CC4)c4ccc(F)cc43)nc3cc(Cl)ccc32)cc1 [Example 6-3, 4-{5-Chloro-2-[(6′-fluoro-2′-oxospiro[cyclopropane-1,3′-indol]-1′(2′H)-yl)methyl]-1H-benzimidazol-1-yl}benzoic acid]
0.013 µM | NC(=O)c1ccc(-n2c(CN3C(=O)C4(CC4)c4ccncc43)nc3cc(Cl)ccc32)cc1 [Example 7, 4-{5-Chloro-2-[(2′-oxospiro[cyclopropane-1,3′-pyrrolo[2,3-c]pyridin]-1′(2′H)-yl)methyl]-1H-benzimidazol-1-yl}benzamide]
0.018 µM | O=C1N(Cc2nc3cc(Cl)ccc3n2-c2ccc(O)nc2)c2cnccc2C12CC2 [Example 8, 1′-{[5-Chloro-1-(6-hydroxypyridin-3-yl)-1H-benzimidazol-2-yl]methyl}spiro[cyclopropane-1,3′-pyrrolo[2,3-c]pyridin]-2′(1′H)-one]
0.025 µM | CS(=O)(=O)c1ccc(-c2c(CN3C(=O)C4(CC4)c4ccncc43)[nH]c3cc(Cl)ccc23)cc1 [Example 9-1, 1′-({6-Chloro-3-[4-(methylsulfonyl)phenyl]-1H-indol-2-yl}methyl)spiro[cyclopropane-1,3′-pyrrolo[2,3-c]pyridin]-2′(1′H)-one]
0.029 µM | CS(=O)(=O)c1cccc(-c2c(CN3C(=O)C4(CC4)c4ccncc43)[nH]c3cc(Cl)ccc23)c1 [Example 9-2, 1′-({6-Chloro-3-[3-(methylsulfonyl)phenyl]-1H-indol-2-yl}methyl)spiro[cyclopropane-1,3′-pyrrolo[2,3-c]pyridin]-2′(1′H)-one]

Test system: RSV infection
Assay: not given
Details: intramuscularly 15 mg/kg once a month for the RSV season, selected infants; cited from earlier work

Compound | reduction of hospitalization rate caused by RSV infection
palivizumab: a humanized monoclonal antibody against RSV fusion (F) protein approved for prophylaxis in high-risk infants | 45-55%
